Results: US5256788A, “Moranoline derivatives and their production and the use of moranoline and its derivatives as a stabilizing agent for enzymes” (Nippon Shinyaku Co. Ltd., priority 1989, dated 1993)

Target: T1, immobilized CGTase (Geobacillus stearothermophilus, UniProt P31797)
T1 construct: purchased Hayashibara Biochemical Research Institute
T1 sequence (P31797 32-711): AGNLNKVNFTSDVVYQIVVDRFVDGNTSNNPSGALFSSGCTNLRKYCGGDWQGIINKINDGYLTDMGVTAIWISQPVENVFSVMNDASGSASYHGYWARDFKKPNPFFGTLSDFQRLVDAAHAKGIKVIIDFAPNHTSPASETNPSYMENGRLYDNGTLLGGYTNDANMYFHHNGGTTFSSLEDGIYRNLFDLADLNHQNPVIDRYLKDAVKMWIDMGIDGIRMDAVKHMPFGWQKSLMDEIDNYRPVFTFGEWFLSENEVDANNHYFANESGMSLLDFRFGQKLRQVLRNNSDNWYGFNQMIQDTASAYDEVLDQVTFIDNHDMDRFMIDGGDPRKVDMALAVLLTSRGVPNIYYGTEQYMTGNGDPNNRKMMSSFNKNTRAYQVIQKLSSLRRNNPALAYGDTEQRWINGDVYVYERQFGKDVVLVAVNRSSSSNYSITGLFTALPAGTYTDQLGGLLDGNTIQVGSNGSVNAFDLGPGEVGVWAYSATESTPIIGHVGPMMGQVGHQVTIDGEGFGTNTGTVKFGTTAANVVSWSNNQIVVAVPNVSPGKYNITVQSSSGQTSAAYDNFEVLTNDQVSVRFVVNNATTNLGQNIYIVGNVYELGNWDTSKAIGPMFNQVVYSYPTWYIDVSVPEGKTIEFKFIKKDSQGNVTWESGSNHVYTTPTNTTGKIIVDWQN
Assay: Stabilization of immobilized CGTase in sugar transfer reaction solution of moranoline (enzyme activity retention rate)
Assay type: biochemical, Bacillus stearothermophilus
Settings: 2.5 w/v% moranoline and 25 w/v% Amicol No. 6L
Method: (§1) The immobilized CGTase, 10 ml, obtained in Reference Example 1 was added to 100 ml of aqueous solution with the pH being not adjusted containing 2.5 w/v% of moranoline and 25 w/v% of Amicol No. 6L [manufactured by Nichiden Chemical Co., Ltd.] followed by rotary shaking at 55° C. Thereafter, beads formed and (after a definite period of time as illustrated below) the beads (immobilized CGTase) were filtered through a glass filter. After thoroughly washing with water, the enzyme activity of the immobilized CGTase was determined as follows.
(§2) The beads (washed immobilized CGTase after a definite period of time at 55° C.), 1 ml, was added to 10 ml of aqueous solution with the pH being not adjusted containing 2.5 w/v% of moranoline and 25 w/v% of Amicol No. 6L followed by reacting at 55° C. for 24 hours. The reaction solution 3 ml, was passed through 7 ml of strongly acidic ion exchange resin DOWEX 50W×2 (H ). After thoroughly washing with water, elution was performed with 0.5N ammonia water. The eluate was concentrated to dryness under reduced pressure and the residue was dissolved in 3 ml of water. 10 μl of the solution was applied to and analyzed by high performance liquid chromatography to determine a concentration of the unreacted moranoline. The analytical conditions for high performance liquid chromatography were as follows: column (Nucleosil 5NH2, 5 μm, 4 mm i.d.×25 cm), developing solvent acetonitrile-water=70:30), detector (Hitachi 655A-30, RI detector), data processor (Hitachi D-2000). [formula]
Where the reaction progress rate was made 100 when rotary shaking started at 55° C., a relative reaction progress rate after a definite period of time passed was calculated according to the above equation. The thus obtained value was made an enzyme activity retention rate. The fact that the enzyme activity of the immobilized CGTase was stabilized by the moranoline in accordance with the present invention is clearly shown.
as §1, with “Example A” for “Example 1”, “C. After” for “C. Thereafter, beads formed and (after”, “time passed,” for “time as illustrated below)”, “follows. (Method for determination of enzyme activity of immobilized CGTase)” for “follows.”
as §2, with “24 hours” for “24 hours.”, “reaction liquid,” for “reaction solution”, “DOWEX 50W X 2 (H+).” for “DOWEX 50W×2 (H ).”, “mm i.d. X 25” for “mm i.d.×25”
Where the reaction progress rate was made 100 when rotary shaking started at 55° C., a relative reaction progress rate after a definite period of time passed was calculated according to the above equation. The thus obtained value was made an enzyme activity retention rate.

**Q.** What does the source list for OC[C@H]1NC[C@H](O)[C@@H](O)[C@@H]1O [moranoline]?
**A.** activity at 25000 µg/mL (0 h, day 0, 55° C., start made 100): 100%; activity at 25000 µg/mL (336 h, day 14, 55° C.): 100%; activity at 25000 µg/mL (504 h, day 21, 55° C.): 103%; activity at 25000 µg/mL (672 h, day 28, 55° C.): 102%; activity at 25000 µg/mL (888 h, day 37, 55° C.): 101%; activity at 25000 µg/mL (1272 h, day 53, 55° C.): 102%; activity at 25000 µg/mL (1560 h, day 65, 55° C.): 104%; activity at 25000 µg/mL (1872 h, day 78, 55° C.): 101%; activity at 25000 µg/mL (2232 h, day 93, 55° C.): 99.7%; activity at 25000 µg/mL (2400 h, day 100, 55° C.): 100%; activity at 25000 µg/mL (2856 h, day 119, 55° C.): 97%; activity at 25000 µg/mL (3360 h, day 140, 55° C.): 100%; activity at 25000 µg/mL (3912 h, day 163, 55° C.): 99.3%; activity at 25000 µg/mL (4272 h, day 178, 55° C.): 98.4%; activity at 25000 µg/mL (4752 h, day 198, 55° C.): 92.5%; activity at 25000 µg/mL (5040 h, day 210, 55° C.): 95.6%; activity at 25000 µg/mL (5544 h, day 231, 55° C.): 92.5%; activity at 25000 µg/mL (5904 h, day 246, 55° C.): 93%; activity at 25000 µg/mL (6288 h, day 262, 55° C.): 92.3%; activity at 25000 µg/mL (6576 h, day 274, 55° C.): 92.5%; activity at 25000 µg/mL (6912 h, day 288, 55° C.): 91.7%; activity at 25000 µg/mL (7248 h, day 302, 55° C.): 92%; activity at 25000 µg/mL (7728 h, day 322, 55° C.): 92.7%; activity at 25000 µg/mL (8136 h, day 339, 55° C.): 91.5%; activity at 25000 µg/mL (8472 h, day 353, 55° C.): 93.9%; activity at 25000 µg/mL (8784 h, day 366, 55° C.): 90%; activity at 25000 µg/mL (9912 h, day 413, 55° C.): 90%
